Measurements from ChEMBL document CHEMBL5550163, “A novel approach to exploit Small-Molecule glucagon-like Peptide-1 receptor agonists with high potency” (Bioorg Med Chem, 2024).
The source made the active and inactive calls. The rule behind the calls is not given here.

Tests used:
[1] = molecular target: T1, Glucagon-like peptide 1 receptor (Homo sapiens, UniProt P43220); test: Agonist activity human GLP-1R stably expressed in HEK293 cells assessed as increase in intracellular cAMP level incubated for 30 mins by multiplate reader analysis; type: functional, cell-based
[2] = molecular target: T1, Glucagon-like peptide 1 receptor; test: Agonist activity at GLP-1R (unknown origin) transfected in HEK293 cells assessed as beta-arrestin1 recruitment incubated for 5 mins by Envision multiplate reader analysis; type: functional, cell-based
[3] = molecular target: T1, Glucagon-like peptide 1 receptor; test: Agonist activity at GLP-1R (unknown origin) transfected in HEK293 cells assessed as beta-arrestin2 recruitment incubated for 5 mins by Envision multiplate reader analysis; type: functional, cell-based
Mus musculus [4] = test: Antidiabetic activity in hGLP1R-knock in mouse model assessed as reduction in blood glucose level at 3 mg/kg, ip pretreated with compound for 15 mins followed glucose addition and measured after 120 mins by OGTT analysis; type: functional, organism-based; conditions: time 135.0 min
Pancreatic islet = test: Induction of insulin secretion in mouse Pancreatic islet cells expressing hGLP1R at 10 nM measured for 2 hrs by HTRF analysis; type: functional, cell-based
Mus musculus [5] = test: Antidiabetic activity in hGLP1R-knock in mouse model assessed as reduction in blood glucose level at 3 mg/kg, ip pretreated with compound for 15 mins followed glucose addition and measured after 30 to 120 mins by OGTT analysis; type: functional, organism-based; conditions: time 45-135 min
[6] = molecular target: T2, Glucagon-like peptide 2 receptor (Homo sapiens) (UniProt O95838); test: Agonist activity human GLP-2R stably expressed in HEK293 cells assessed as […] in intracellular cAMP level up to 100 uM incubated for 30 mins by multiplate reader analysis; type: functional, cell-based
T2 sequence (whole entry): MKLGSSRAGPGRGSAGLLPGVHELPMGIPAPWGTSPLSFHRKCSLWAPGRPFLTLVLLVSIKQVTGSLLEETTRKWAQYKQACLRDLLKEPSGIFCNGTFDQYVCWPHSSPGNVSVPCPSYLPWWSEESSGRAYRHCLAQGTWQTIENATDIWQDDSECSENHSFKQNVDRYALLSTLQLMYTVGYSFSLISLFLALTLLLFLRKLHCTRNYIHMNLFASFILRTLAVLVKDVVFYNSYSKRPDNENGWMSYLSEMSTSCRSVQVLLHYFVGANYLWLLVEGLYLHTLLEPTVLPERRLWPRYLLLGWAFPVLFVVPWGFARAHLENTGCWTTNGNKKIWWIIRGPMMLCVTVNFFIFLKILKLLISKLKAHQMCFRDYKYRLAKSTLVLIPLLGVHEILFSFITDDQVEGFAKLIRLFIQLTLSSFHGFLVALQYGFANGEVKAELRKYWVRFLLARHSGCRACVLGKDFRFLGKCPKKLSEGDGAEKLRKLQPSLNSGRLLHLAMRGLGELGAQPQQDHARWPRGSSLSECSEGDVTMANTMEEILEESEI

[7] = molecular target: Glucagon receptor (Homo sapiens) (UniProt P47871); test: Agonist activity human GCGR stably expressed in HEK293 cells assessed as […] in intracellular cAMP level up to 100 uM incubated for 30 mins by multiplate reader analysis; type: functional, cell-based
[8] = molecular target: T3, Gastric inhibitory polypeptide receptor (Homo sapiens) (UniProt P48546); test: Agonist activity human GIPR stably expressed in HEK293 cells assessed as […] in intracellular cAMP level up to 100 uM incubated for 30 mins by multiplate reader analysis; type: functional, cell-based
T3 sequence (whole entry): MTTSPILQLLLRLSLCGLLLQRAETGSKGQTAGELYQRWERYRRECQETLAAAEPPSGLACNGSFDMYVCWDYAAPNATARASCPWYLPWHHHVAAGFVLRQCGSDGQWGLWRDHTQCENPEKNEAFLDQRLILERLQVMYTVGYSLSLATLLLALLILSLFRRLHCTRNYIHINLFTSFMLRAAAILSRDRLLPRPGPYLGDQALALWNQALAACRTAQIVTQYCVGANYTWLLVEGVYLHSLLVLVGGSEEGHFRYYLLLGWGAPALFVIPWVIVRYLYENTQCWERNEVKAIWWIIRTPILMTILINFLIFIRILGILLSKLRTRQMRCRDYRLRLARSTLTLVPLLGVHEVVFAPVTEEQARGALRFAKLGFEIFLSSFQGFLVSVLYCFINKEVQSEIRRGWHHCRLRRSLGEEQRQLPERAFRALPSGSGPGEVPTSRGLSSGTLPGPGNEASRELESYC

Mus musculus [9] = test: Antidiabetic activity in hGLP1R-knock in mouse model assessed as reduction in blood glucose AUC (0 to 120 mins) at 3 mg/kg, ip pretreated with compound for 15 mins followed glucose addition and measured after 120 mins by OGTT analysis; type: functional; set-up: scale not given: the % may be the effect or the level left; conditions: time 135 min, 2.25 h

T1 sequence (P43220 whole entry): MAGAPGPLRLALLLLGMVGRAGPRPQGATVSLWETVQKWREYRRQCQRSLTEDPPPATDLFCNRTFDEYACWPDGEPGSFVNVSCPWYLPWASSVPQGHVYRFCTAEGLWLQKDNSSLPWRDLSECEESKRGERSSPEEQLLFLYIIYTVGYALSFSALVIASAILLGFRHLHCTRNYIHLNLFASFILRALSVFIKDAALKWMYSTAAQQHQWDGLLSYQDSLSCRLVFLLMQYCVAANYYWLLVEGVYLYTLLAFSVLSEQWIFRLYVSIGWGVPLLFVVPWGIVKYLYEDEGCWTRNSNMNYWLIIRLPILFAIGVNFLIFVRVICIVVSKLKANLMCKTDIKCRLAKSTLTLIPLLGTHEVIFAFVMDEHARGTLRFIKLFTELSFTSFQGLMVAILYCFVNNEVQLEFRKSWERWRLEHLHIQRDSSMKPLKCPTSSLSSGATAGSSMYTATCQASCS
Chain of Glucagon receptor (Homo sapiens) (P47871 whole entry): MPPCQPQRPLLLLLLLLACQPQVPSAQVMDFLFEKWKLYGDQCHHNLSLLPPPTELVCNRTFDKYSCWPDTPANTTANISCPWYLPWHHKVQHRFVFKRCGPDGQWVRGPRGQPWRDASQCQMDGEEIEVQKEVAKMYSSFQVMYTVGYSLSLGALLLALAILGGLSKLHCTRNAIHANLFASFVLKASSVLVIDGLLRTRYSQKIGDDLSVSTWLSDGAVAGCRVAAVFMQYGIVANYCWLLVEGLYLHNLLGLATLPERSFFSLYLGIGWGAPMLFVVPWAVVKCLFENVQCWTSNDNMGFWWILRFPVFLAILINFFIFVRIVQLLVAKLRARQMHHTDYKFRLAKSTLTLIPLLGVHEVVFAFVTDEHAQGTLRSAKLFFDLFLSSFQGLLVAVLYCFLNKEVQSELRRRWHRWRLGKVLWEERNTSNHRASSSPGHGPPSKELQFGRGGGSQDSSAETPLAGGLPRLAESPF

`NC(=O)CCCSc1nnc(-c2ccc3c(c2)nc(CN2CCC(c4cccc(OCc5ccc(Cl)cc5F)n4)CC2)n3C[C@@H]2CCO2)[nH]1` gave an EC50 [1] of 0.1 nM, an EC50 [2] of 566 nM and an EC50 [3] of 322 nM.
For `NC(=O)CCCCSc1nnc(-c2ccc3c(c2)nc(CN2CCC(c4cccc(OCc5ccc(Cl)cc5F)n4)CC2)n3C[C@@H]2CCO2)[nH]1`, the EC50 [1] was 0.62 nM.
In the case of `CC(=O)CSc1nnc(-c2ccc3c(c2)nc(CN2CCC(c4cccc(OCc5ccc(Cl)cc5F)n4)CC2)n3C[C@@H]2CCO2)[nH]1`, the EC50 [1] is reported as 0.66 nM.
`Fc1cc(Cl)ccc1COc1cccc(C2CCN(Cc3nc4cc(-c5nnc(C(F)(F)F)[nH]5)ccc4n3C[C@@H]3CCO3)CC2)n1` was tested, and the EC50 [1] was 0.46 nM.
For `CCSc1nnc(-c2ccc3c(c2)nc(CN2CCC(c4cccc(OCc5ccc(Cl)cc5F)n4)CC2)n3C[C@@H]2CCO2)[nH]1`, the EC50 [1] was 1.1 nM.
`NC(=O)CSc1nnc(-c2ccc3c(c2)nc(CN2CCC(c4cccc(OCc5ccc(Cl)cc5F)n4)CC2)n3C[C@@H]2CCO2)[nH]1` showed an EC50 [1] of 0.35 nM.
`N#Cc1ccc(COc2cccc(C3CCN(Cc4nc5ccc(C(=O)O)cc5n4C[C@@H]4CCO4)CC3)n2)c(F)c1` was tested, and the Activity (Mus musculus [4]) was “Active”, the Activity (Pancreatic islet) was “Active” and the Activity (Mus musculus [5]) was “Active”.
`NC(=O)NCCSc1nnc(-c2ccc3c(c2)nc(CN2CCC(c4cccc(OCc5ccc(Cl)cc5F)n4)CC2)n3C[C@@H]2CCO2)[nH]1` gave an EC50 [1] of 0.11 nM, an EC50 [2] of 364 nM and an EC50 [3] of 349 nM.
In the case of `CC(C)Sc1nnc(-c2ccc3c(c2)nc(CN2CCC(c4cccc(OCc5ccc(Cl)cc5F)n4)CC2)n3C[C@@H]2CCO2)[nH]1`, the EC50 [1] is reported as 5.2 nM.
With `NC(=O)CCSc1nnc(-c2ccc3c(c2)nc(CN2CCC(c4cccc(OCc5ccc(Cl)cc5F)n4)CC2)n3C[C@@H]2CCO2)[nH]1` the EC50 [1] was 0.59 nM.
`OCCSc1nnc(-c2ccc3c(c2)nc(CN2CCC(c4cccc(OCc5ccc(Cl)cc5F)n4)CC2)n3C[C@@H]2CCO2)[nH]1` was tested, and the Activity (Mus musculus [4]) was “Active”, the Activity [6] was “inactive” and the Activity [7] was “inactive”. The EC50 [1] was 0.065 nM, the Activity (Pancreatic islet) was “Active” and the Activity [8] was “inactive”. For the same compound, the EC50 [2] was 936 nM, the Activity (Mus musculus [9]) was 50% and the EC50 [3] was 581 nM. For the same compound, the Activity (Mus musculus [5]) was “Active”.
In the case of `OCCCCSc1nnc(-c2ccc3c(c2)nc(CN2CCC(c4cccc(OCc5ccc(Cl)cc5F)n4)CC2)n3C[C@@H]2CCO2)[nH]1`, the EC50 [1] is reported as 4 nM.
In the case of `CN(C)c1nnc(-c2ccc3c(c2)nc(CN2CCC(c4cccc(OCc5ccc(Cl)cc5F)n4)CC2)n3C[C@@H]2CCO2)[nH]1`, the EC50 [1] is reported as 6.8 nM.
`O=C(O)CSc1nnc(-c2ccc3c(c2)nc(CN2CCC(c4cccc(OCc5ccc(Cl)cc5F)n4)CC2)n3C[C@@H]2CCO2)[nH]1` showed an EC50 [1] of 1 nM.
Work on `OCCCSc1nnc(-c2ccc3c(c2)nc(CN2CCC(c4cccc(OCc5ccc(Cl)cc5F)n4)CC2)n3C[C@@H]2CCO2)[nH]1` yielded an EC50 [1] of 0.48 nM.
For `CCc1nnc(-c2ccc3c(c2)nc(CN2CCC(c4cccc(OCc5ccc(Cl)cc5F)n4)CC2)n3C[C@@H]2CCO2)[nH]1`, the EC50 [1] was 0.75 nM.
Compound `Fc1cc(Cl)ccc1COc1cccc(C2CCN(Cc3nc4cc(-c5nnc(SCC6CC6)[nH]5)ccc4n3C[C@@H]3CCO3)CC2)n1` has an EC50 [1] of 50 nM.
`N=C(CSc1nnc(-c2ccc3c(c2)nc(CN2CCC(c4cccc(OCc5ccc(Cl)cc5F)n4)CC2)n3C[C@@H]2CCO2)[nH]1)NO` gave an EC50 [1] of 0.52 nM.
With `COc1nnc(-c2ccc3c(c2)nc(CN2CCC(c4cccc(OCc5ccc(Cl)cc5F)n4)CC2)n3C[C@@H]2CCO2)[nH]1` the EC50 [1] was 0.88 nM.
`CSc1nnc(-c2ccc3c(c2)nc(CN2CCC(c4cccc(OCc5ccc(Cl)cc5F)n4)CC2)n3C[C@@H]2CCO2)n1C` gave an EC50 [1] of 8.5 nM.
Compound `N#CCSc1nnc(-c2ccc3c(c2)nc(CN2CCC(c4cccc(OCc5ccc(Cl)cc5F)n4)CC2)n3C[C@@H]2CCO2)[nH]1` has an EC50 [1] of 0.67 nM.
`CSc1nnc(-c2ccc3c(c2)nc(CN2CCC(c4cccc(OCc5ccc(Cl)cc5F)n4)CC2)n3C[C@@H]2CCO2)[nH]1` was tested, and the EC50 [1] was 0.67 nM.
`O=C1NCC(CSc2nnc(-c3ccc4c(c3)nc(CN3CCC(c5cccc(OCc6ccc(Cl)cc6F)n5)CC3)n4C[C@@H]3CCO3)[nH]2)O1` (stereo partly drawn) showed an EC50 [1] of 0.38 nM.
`NCCSc1nnc(-c2ccc3c(c2)nc(CN2CCC(c4cccc(OCc5ccc(Cl)cc5F)n4)CC2)n3C[C@@H]2CCO2)[nH]1` showed an EC50 [1] of 0.42 nM.
`N=C(N)CSc1nnc(-c2ccc3c(c2)nc(CN2CCC(c4cccc(OCc5ccc(Cl)cc5F)n4)CC2)n3C[C@@H]2CCO2)[nH]1` was tested, and the EC50 [1] was 2.8 nM.
`COCCSc1nnc(-c2ccc3c(c2)nc(CN2CCC(c4cccc(OCc5ccc(Cl)cc5F)n4)CC2)n3C[C@@H]2CCO2)[nH]1` gave an EC50 [1] of 3.4 nM.
`Fc1cc(Cl)ccc1COc1cccc(C2CCN(Cc3nc4cc(-c5nnc(SCc6ncc[nH]6)[nH]5)ccc4n3C[C@@H]3CCO3)CC2)n1` was tested, and the EC50 [1] was 2.5 nM.
`CC(C)CSc1nnc(-c2ccc3c(c2)nc(CN2CCC(c4cccc(OCc5ccc(Cl)cc5F)n4)CC2)n3C[C@@H]2CCO2)[nH]1` gave an EC50 [1] of 22 nM.
